# Data taken from patent US7192746B2, “α-Isomaltosyltransferase, process for producing the same and use thereof” (Kabushiki Kaisha Hayashibara Seibutsu Kagaku Kenkyujo, priority 2000, dated 2007).
# Legend:
# Format in all cases: biochemical
# [1] = test system: α-isomaltosyl-transferring enzyme from Bacillus globisporus N75; experiment: Specificity to transferring acceptor; conditions: panose as saccharide donor, 10 units/g substrate, 3.2% (w/v), 30° C., pH 6.0, 24 hours
# Outline: (§1)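 Scoring is presence or absence of a transfer product, detected by HPLC for tri- or larger saccharides and by GLC for smaller ones. Reactions: 3.2% (w/v) saccharide with panose as donor in equal amount, 10 units/g substrate of purified or partially purified enzyme, pH 6.0, 30 °C, 24 h.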
# [2] = test system: α-isomaltosyl-transferring enzyme from Bacillus globisporus C11; experiment: Specificity to transferring acceptor; conditions: panose as saccharide donor, 10 units/g substrate, 3.2% (w/v), 30° C., pH 6.0, 24 hours
# Outline: as §1
# [3] = test system: α-isomaltosyl-transferring enzyme from Arthrobacter ramosus S1; experiment: Specificity to transferring acceptor; conditions: panose as saccharide donor, 10 units/g substrate, 3.2% (w/v), 30° C., pH 6.0, 24 hours
# Outline: as §1
# [4] = test system: α-isomaltosyl-transferring enzyme from Arthrobacter globiformis A19; experiment: Specificity to transferring acceptor; conditions: partially purified enzyme, panose as saccharide donor, 10 units/g substrate, 3.2% (w/v), 30° C., pH 6.0, 24 hours
# Outline: as §1
# [5] = test system: α-isomaltosyl-transferring enzyme from Bacillus globisporus C9; experiment: Specificity to transferring acceptor; conditions: panose as saccharide donor, 10 units/g substrate, 3.2% (w/v), 30° C., pH 6.0, 24 hours
# Outline: as §1
# [6] = test system: α-isomaltosyl-transferring enzyme from Bacillus globisporus N75; experiment: Action on saccharides (substrates, TLC); set-up: key: −: there was found no substrate change before and after the enzymatic reaction; +: there were found both the reduction of substrate and the formation of cyclotetrasaccharide after the enzymatic reaction; conditions: 2 units/g substrate, 2% (w/v) substrate, 30° C., pH 6.0, 24 hours
# Source text: (§2) To examine the saccharides in the supernatant, they were separated from the supernatant by silica gel thin-layer chromatography (abbreviated as “TLC” hereinafter) using, as a developer, a mixture solution of n-butanol, pyridine, and water (=6:4:1), and, as a thin-layer plate, “[…] 60”, an aluminum plate (20×20 cm) for TLC commercialized by […]. The coloration of both the separated total sugars by the sulfuric acid-methanol method and the reducing saccharides by the diphenylamine-aniline method detected a non-reducing saccharide at a position with an Rf value of about 0.31, which was positive on the former detection method but negative on the latter detection method.
# (§3) It was tested whether saccharides can be used as substrates for the α-isomaltosyl-transferring enzyme. For the purpose, a solution of maltose, maltotriose, maltotetraose, maltopentaose, maltohexaose, maltoheptaose, isomaltose, isomaltotriose, panose, isomaltosylmaltose, isopanose, α,α-trehalose, kojibiose, nigerose, α,β-trehalose, cellobiose, gentibiose, maltitol, maltotriitol, lactose, sucrose, α-cyclodextrin, β-cyclodextrin, γ-cyclodextrin, soluble starch, pullulan, or dextran was prepared. To each of the above solutions was added two units/g substrate of a purified specimen of either α-isomaltosyl-transferring enzyme from Bacillus globisporus C9 obtained by the method in Experiment 4, Bacillus globisporus C11 obtained by the method in Experiment 7, Bacillus globisporus N75 obtained by the method in Experiment 11, or Arthrobacter ramosus S1 obtained by the method in Experiment 15, or a partially purified α-isomaltosyl-transferring enzyme from Arthrobacter globiformis A19 obtained by the method in Experiment 15. The resulting each solution was adjusted to give a substrate concentration of 2% (w/v) and incubated at 30° C. and pH 6.0 for 24 hours. The enzyme solutions before and after the enzymatic reactions were respectively analyzed on TLC as disclosed in Experiment 1 to confirm whether the enzymes acted on these substrates.
# [7] = test system: α-isomaltosyl-transferring enzyme from Bacillus globisporus C11; experiment: Action on saccharides (substrates, TLC); set-up: key: −: there was found no substrate change before and after the enzymatic reaction; +: there were found both the reduction of substrate and the formation of cyclotetrasaccharide after the enzymatic reaction; conditions: 2 units/g substrate, 2% (w/v) substrate, 30° C., pH 6.0, 24 hours
# Source text: as §2, §3
# [8] = test system: α-isomaltosyl-transferring enzyme from Arthrobacter ramosus S1; experiment: Action on saccharides (substrates, TLC); set-up: key: −: there was found no substrate change before and after the enzymatic reaction; +: there were found both the reduction of substrate and the formation of cyclotetrasaccharide after the enzymatic reaction; conditions: 2 units/g substrate, 2% (w/v) substrate, 30° C., pH 6.0, 24 hours
# Source text: as §2, §3
# [9] = test system: α-isomaltosyl-transferring enzyme from Arthrobacter globiformis A19; experiment: Action on saccharides (substrates, TLC); set-up: key: −: there was found no substrate change before and after the enzymatic reaction; +: there were found both the reduction of substrate and the formation of cyclotetrasaccharide after the enzymatic reaction; conditions: partially purified enzyme, 2 units/g substrate, 2% (w/v) substrate, 30° C., pH 6.0, 24 hours
# Source text: as §2, §3
# [10] = test system: α-isomaltosyl-transferring enzyme from Bacillus globisporus C9; experiment: Action on saccharides (substrates, TLC); set-up: key: −: there was found no substrate change before and after the enzymatic reaction; +: there were found both the reduction of substrate and the formation of cyclotetrasaccharide after the enzymatic reaction; conditions: 2 units/g substrate, 2% (w/v) substrate, 30° C., pH 6.0, 24 hours
# Source text: as §2, §3
"Enzymatic action for forming cyclotetrasaccharide, Enzyme of Strain N75 [6]","Enzymatic action for forming cyclotetrasaccharide, Enzyme of Strain C11 [7]","Enzymatic action for forming cyclotetrasaccharide, Enzyme of Strain S1 [8]","Enzymatic action for forming cyclotetrasaccharide, Enzyme of Strain A19 [9]","Enzymatic action for forming cyclotetrasaccharide, Enzyme of Strain C9 [10]",SMILES,"Product of transferring reaction, Enzyme of Strain N75 [1]","Product of transferring reaction, Enzyme of Strain C11 [2]","Product of transferring reaction, Enzyme of Strain S1 [3]","Product of transferring reaction, Enzyme of Stain A19 [4]","Product of transferring reaction, Enzyme of Strain C9 [5]"
−,−,−,−,−,"OC[C@H]1O[C@@H](OC[C@H]2OC(O)[C@H](O)[C@@H](O)[C@@H]2O)[C@H](O)[C@@H](O)[C@@H]1O (some centres unmarked) [Gentibiose, gentibiose]",++ (a saccharide-transferred product was formed in an amount of over 10% to the total sugars),++ (a saccharide-transferred product was formed in an amount of over 10% to the total sugars),+ (a saccharide-transferred product was formed in an amount of over one percent but below 10% to the total sugars),+ (a saccharide-transferred product was formed in an amount of over one percent but below 10% to the total sugars),++ (a saccharide-transferred product was formed in an amount of over 10% to the total sugars)
−,−,−,−,−,"OC[C@H]1O[C@H](OC[C@H]2OC(O)[C@H](O)[C@@H](O)[C@@H]2O)[C@H](O)[C@@H](O)[C@@H]1O (some centres unmarked) [Isomaltose, isomaltose]",++ (a saccharide-transferred product was formed in an amount of over 10% to the total sugars),++ (a saccharide-transferred product was formed in an amount of over 10% to the total sugars),++ (a saccharide-transferred product was formed in an amount of over 10% to the total sugars),++ (a saccharide-transferred product was formed in an amount of over 10% to the total sugars),++ (a saccharide-transferred product was formed in an amount of over 10% to the total sugars)
−,−,−,−,−,"OC[C@H]1O[C@H](OC[C@H]2O[C@H](OC[C@H]3OC(O)[C@H](O)[C@@H](O)[C@@H]3O)[C@H](O)[C@@H](O)[C@@H]2O)[C@H](O)[C@@H](O)[C@@H]1O (some centres unmarked) [Isomaltotriose, isomaltotriose]",+ (a saccharide-transferred product was formed in an amount of over one percent but below 10% to the total sugars),+ (a saccharide-transferred product was formed in an amount of over one percent but below 10% to the total sugars),++ (a saccharide-transferred product was formed in an amount of over 10% to the total sugars),+ (a saccharide-transferred product was formed in an amount of over one percent but below 10% to the total sugars),+ (a saccharide-transferred product was formed in an amount of over one percent but below 10% to the total sugars)
−,−,−,−,−,"OC[C@H]1O[C@H](O[C@H]2[C@H](O)[C@@H](O)[C@@H](OC[C@H]3OC(O)[C@H](O)[C@@H](O)[C@@H]3O)O[C@@H]2CO)[C@H](O)[C@@H](O)[C@@H]1O (some centres unmarked) [Isopanose, isopanose]",+ (a saccharide-transferred product was formed in an amount of over one percent but below 10% to the total sugars),+ (a saccharide-transferred product was formed in an amount of over one percent but below 10% to the total sugars),+ (a saccharide-transferred product was formed in an amount of over one percent but below 10% to the total sugars),+ (a saccharide-transferred product was formed in an amount of over one percent but below 10% to the total sugars),+ (a saccharide-transferred product was formed in an amount of over one percent but below 10% to the total sugars)
−,−,−,−,−,"OC[C@H]1O[C@H](O[C@H]2C(O)O[C@H](CO)[C@@H](O)[C@@H]2O)[C@H](O)[C@@H](O)[C@@H]1O (some centres unmarked) [Kojibiose, kojibiose]",+ (a saccharide-transferred product was formed in an amount of over one percent but below 10% to the total sugars),+ (a saccharide-transferred product was formed in an amount of over one percent but below 10% to the total sugars),+ (a saccharide-transferred product was formed in an amount of over one percent but below 10% to the total sugars),+ (a saccharide-transferred product was formed in an amount of over one percent but below 10% to the total sugars),+ (a saccharide-transferred product was formed in an amount of over one percent but below 10% to the total sugars)
